From article PMC12667485, “Molecular Chain Elongation Mechanism for n‐Caproate Biosynthesis by Megasphaera Hexanoica” (Advanced Science, 2025)

Target: T1, MhTHL (Megasphaera hexanoica, UniProt A0A848BQU5, C88S)
T1 construct: gene HF872_02440; tetramerization motif
Assay: X-ray crystal structure, […] Å
Assay type: binding
Details: crystals soaked in 25 mM hexanoyl-CoA for 5 min, pH 7.5; the bound ligand is deacylated CoA; active site

T1 sequence (A0A848BQU5 entry or part of it C88S): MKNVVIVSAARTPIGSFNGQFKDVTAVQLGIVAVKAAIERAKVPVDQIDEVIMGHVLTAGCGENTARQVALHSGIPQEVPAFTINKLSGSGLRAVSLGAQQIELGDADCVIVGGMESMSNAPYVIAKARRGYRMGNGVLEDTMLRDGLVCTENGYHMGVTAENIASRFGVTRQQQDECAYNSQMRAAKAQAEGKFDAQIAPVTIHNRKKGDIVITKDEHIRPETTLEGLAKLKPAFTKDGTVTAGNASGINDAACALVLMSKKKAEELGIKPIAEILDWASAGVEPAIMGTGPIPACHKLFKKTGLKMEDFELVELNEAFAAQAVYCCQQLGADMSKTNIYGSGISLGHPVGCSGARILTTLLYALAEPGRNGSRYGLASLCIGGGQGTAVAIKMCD

CC(C)(COP(=O)(O)OP(=O)(O)OC[C@H]1O[C@@H](n2cnc3c(N)ncnc32)[C@H](O)[C@@H]1OP(=O)(O)O)[C@@H](O)C(=O)NCCC(=O)NCCS [CoA]
X-ray crystal structure, 1.64 Å: a deacylated CoA molecule was bound to MhTHL in the mF observed‐DF calculated electron density map
